Ends that are not written are not given here.
B1: Recombinant human gamma interferon D: recombinant human gamma interferon D prepared from transformed E. coli, stimulus in antiviral and HLA-DR assays (protein, UniProt P01579 24-161, looked up)
Interferon gamma: QDPYVKEAENLKKYFNAGHSDVADNGTLFLGILKNWKEESDRKIMQSQIVSFYFKLFKNFKDDQSIQKSVETIKEDMNVKFFNSNKKKRDDFEKLTNYSVTDLNVQRKAIHELIQVMAELSPAAKTGKRKRSQMLFRG
modifications: E. coli recombinant
notes: recombinant human gamma interferon D prepared from transformed E. coli, stimulus in antiviral and HLA-DR assays

Assays:
[1] = target: T1, gamma interferon receptors on Daudi cells (Homo sapiens, UniProt P15260); assay: Inhibition of the binding of 125I-recombinant human gamma interferon to Daudi cells (radioligand-receptor assay); settings: for inhibition of the binding of the labeled interferon (in words; type of inhibition): FIGS. 1-4; for Ki: specific binding of 125I-recombinant human gamma interferon to Daudi cells, 2 hours at 4° C., Cheng et al. method
T1 construct: host or cells: Daudi cells (human B lymphoblast, Burkitt lymphoma)
T1 sequence (P15260 18-489): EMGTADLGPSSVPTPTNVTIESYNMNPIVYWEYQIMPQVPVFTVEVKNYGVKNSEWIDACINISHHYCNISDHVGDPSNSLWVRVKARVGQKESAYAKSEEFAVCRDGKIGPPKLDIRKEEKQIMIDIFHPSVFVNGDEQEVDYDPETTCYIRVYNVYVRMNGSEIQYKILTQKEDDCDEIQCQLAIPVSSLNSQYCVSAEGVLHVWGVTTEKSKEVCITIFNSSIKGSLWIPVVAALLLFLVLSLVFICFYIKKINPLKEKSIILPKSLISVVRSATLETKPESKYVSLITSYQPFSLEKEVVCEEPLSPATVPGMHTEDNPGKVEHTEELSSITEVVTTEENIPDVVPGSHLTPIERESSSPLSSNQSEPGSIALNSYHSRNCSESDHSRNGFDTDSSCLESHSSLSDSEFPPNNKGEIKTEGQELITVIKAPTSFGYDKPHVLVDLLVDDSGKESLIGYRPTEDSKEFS
Method: The receptor assay employed a standard mixture of 6×10^5 Daudi cells in 1 ml of binding medium (RPMI 1640 medium, 10% fetal bovine serum, 0.02% sodium azide) containing 200,000 cpm of the labeled interferon. Controls additionally contained 1 μg of unlabeled interferon to determine nonspecific binding. Assays were carried out by adding 0.1 ml aliquots of binding medium with or without varying amounts of a potentially inhibitory polypeptide or protein to the standard mixtures, and incubating the combined mixtures for 2 hours at 4° C.
Following the incubation, the cells were pelleted by centrifugation at 13,000× g for 30 seconds at 4° C, and the supernatants were discarded. The cells were resuspended in 0.2 ml of fresh binding medium without labeled interferon at 4° C., after which the cells were centrifuged at 13,000× g for 2 minutes through a layer of dibutyl phthalate and dioctyl phthalate [0.2 ml of a 1:1 (vol/vol) mixture] to remove residual labeled interferon that was not specifically bound. Inhibition constants (Ki) were calculated according to the method of Cheng et al. [Biochem. Pharmacol. 22:3099 (1973)], in which [formula] where [L] is the ligand concentration and IC50 is the concentration of inhibitor required to decrease binding by 50%.

[2] = test system: murine encephalomyocarditis virus; assay: Antiviral activity assay, human diploid foreskin cells infected with murine encephalomyocarditis virus (Rubinstein et al.); format: cell-based
Source text: It also is a potent inducer of the maturational differentiation of pro-monocytes to premacrophages. […] 37:755 (1981)]. […] 132:240 (1984)].

[3] = test system: antiviral effects of recombinant human gamma interferon D; assay: Inhibition of antiviral effects of recombinant human gamma interferon D on human diploid foreskin cells challenged with encephalomyocarditis virus (CPE scoring); format: cell-based
Method: Control Medium A, various dilutions in Medium A of recombinant human gamma Interferon D in the presence of a fixed concentration of polypeptide No. I, or various dilutions of Medium A of polypeptide No. III in the presence of a fixed concentration of the interferon were pipetted in 0.1 ml total volumes into the wells of 96-well flat bottom microtiter plates.
Aliquots of a suspension of human diploid foreskin cells (0.1 ml, 3.5×10^5 cells/ml) in Medium A were pipetted into the wells of the microtiter plates, and the plates were incubated for 4 hours in a 37° C., 5% CO2 incubator. […]
A 0.025-0.05 aliquot of a solution of crystal violet stain (Sigma Chemical Co., St. Louis, Mo.; 0.485% in an aqueous solution containing 3.2% formaldehyde and 32.3% 95% ethanol) was added to each well, and the plates were allowed to stand for 30 minutes for color development. The stain solution was removed and the wells were washed at least three times with distilled water, after which the plates were scored for CPE with the aid of a fluorescent light viewer.
CPE was graded semi-quantitatively on a scale of 0 to 4, with grade O CPE corresponding to a complete absence of cell lysis as measured by cell staining with crystal violet and grade 4 CPE corresponding to total cell lysis and lack of staining.

Row | Molecule | inhibition of the binding of the labeled interferon (in words; type of inhibition) ([1]; Daudi cells) | Ki [1] [nM] | further results
1 | poly(D-lysine) | strong competitive inhibitors | 190 | 
2 | AKKLSKDRMKKYMARRKWQKTGHAV [Polypeptide I] |  |  | Kd of labeled interferon in the presence of polypeptide (Scatchard analysis) ([1]; 5 μM polypeptide, Daudi cells): marked increase
3 | protamine sulfate |  | 1100 | 
4 | poly(L-lysine) | strong competitive inhibitors | 11000 | 
5 | poly(L-glutamic acid) |  | 290 | 
6 | B1 |  |  | antiviral specific activity [2]: about 4×10^6 units/mg; CPE grade ([3]; interferon alone, 30 pM, scale 0 to 4): 2; cell protection / CPE ([3]; interferon alone, 1,200 pM): complete cell protection

From patent publication US5632988A, “Polypeptide inhibitors of gamma interferon” (Schering Corporation, priority 1992, dated 1997)
